Measurements published in ChEMBL document CHEMBL1125588, “Quinazoline antifolate thymidylate synthase inhibitors: bridge modifications and conformationally restricted analogues in the C2-methyl series” (J Med Chem, 1991).

Tests used:
L1210 [1] = test: Tested for the concentration to inhibit 50% of L1210 cell growth in culture.; type: functional, cell-based; settings: Mus musculus
L1210 [2] = test: Tested for inhibition of L1210 cell growth in presence of dThd and expressed as % of control.; type: functional, Mus musculus; parameters: concentration or dose not given beside the values
Thymidylate synthase = Thymidylate synthase (Mus musculus, UniProt P07607); test: In vitro inhibition against L1210 thymidylate synthase (TS)
Thymidylate synthase, sequence (P07607 whole entry): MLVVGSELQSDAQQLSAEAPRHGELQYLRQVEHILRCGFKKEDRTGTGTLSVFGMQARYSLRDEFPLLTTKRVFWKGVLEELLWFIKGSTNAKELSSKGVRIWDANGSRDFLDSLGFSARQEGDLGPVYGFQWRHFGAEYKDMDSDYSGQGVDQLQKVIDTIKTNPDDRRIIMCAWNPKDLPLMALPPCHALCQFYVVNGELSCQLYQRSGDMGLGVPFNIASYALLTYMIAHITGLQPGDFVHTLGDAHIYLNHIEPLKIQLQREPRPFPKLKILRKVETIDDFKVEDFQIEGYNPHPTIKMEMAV

L1210 [3] = test: Compound was tested for the concentration to inhibit 50% of L1210:1565 cell growth.; type: functional, cell-based; settings: Mus musculus
[4] = Ratio of IC50 of L1210:1565 cells to that of IC50 of L1210 cells; type: functional

| Structure (SMILES) | IC50 (L1210 [1]) | Control (L1210 [2]) | IC50 (Thymidylate synthase) | IC50 (L1210 [3]) | Ratio [4] |
| --- | --- | --- | --- | --- | --- |
| Cc1nc(O)c2cc(COc3ccc(C(=O)N[C@@H](CCC(=O)O)C(=O)O)cc3)ccc2n1 | 0.04 µM | 75% | 21.5 µM |  |  |
| Cc1nc(O)c2cc(Sc3ccc(C(=O)N[C@@H](CCC(=O)O)C(=O)O)cc3)ccc2n1 | > 20 µM |  | 10.3 µM |  |  |
| Cc1nc(O)c2cc(N(CCF)Cc3ccc(C(=O)N[C@@H](CCC(=O)O)C(=O)O)s3)ccc2n1 | 0.38 µM | 95% | 9.9 µM |  |  |
| Cc1nc(O)c2cc(NCc3ccc(C(=O)N[C@@H](CCC(=O)O)C(=O)O)cn3)ccc2n1 | 0.06 µM |  | 16.7 µM |  |  |
| Cc1nc(O)c2cc(NCc3ccc(C(=O)N[C@@H](CCC(=O)O)C(=O)O)s3)ccc2n1 | 0.026 µM | 88% | 6.98 µM |  |  |
| Cc1nc(O)c2cc(CN(C)c3ccc4c(c3)CN([C@@H](CCC(=O)O)C(=O)O)C4=O)ccc2n1 | 1.3 µM | 90% | 0.72 µM |  |  |
| Cc1nc(O)c2cc(NCc3ccc(C(=O)N[C@@H](CCC(=O)O)C(=O)O)cc3)ccc2n1 | 0.07 µM | 93% | 8.28 µM |  |  |
| C#CCN(Cc1ccc(C(=O)N[C@@H](CCC(=O)O)C(=O)O)cc1)c1ccc2nc(C)nc(O)c2c1 | 2.4 µM | 89% |  |  |  |
| Cc1nc(O)c2cc(CSc3ccc(C(=O)N[C@@H](CCC(=O)O)C(=O)O)cc3)ccc2n1 | 0.42 µM | 99% | 4.66 µM |  |  |
| Cc1nc(O)c2cc(Cn3ccc4cc(C(=O)N[C@@H](CCC(=O)O)C(=O)O)ccc43)ccc2n1 | 0.036 µM | 90% | 3.27 µM |  |  |
| Cc1nc(O)c2cc(N(C)Cc3ccc(C(=O)N[C@@H](CCC(=O)O)C(=O)O)cc3)ccc2n1 | 0.7 µM | 93% | 2.62 µM | 7.7 µM | 11 |
| CCN(Cc1ccc(C(=O)N[C@@H](CCC(=O)O)C(=O)O)s1)c1ccc2nc(C)nc(O)c2c1 | 0.66 µM | 94% | 8.42 µM |  |  |
| Cc1nc(O)c2cc(N(C)C(C)c3ccc(C(=O)N[C@@H](CCC(=O)O)C(=O)O)cc3)ccc2n1 (stereo not given in full) | 0.35 µM |  | 1.07 µM |  |  |
| C#CCN(Cc1ccc2nc(C)nc(O)c2c1)c1ccc2c(c1)CN([C@@H](CCC(=O)O)C(=O)O)C2=O | 0.17 µM | 96% | 0.15 µM |  |  |
| C=CCN(Cc1ccc(C(=O)N[C@@H](CCC(=O)O)C(=O)O)s1)c1ccc2nc(C)nc(O)c2c1 | 0.54 µM | 95% | 14.1 µM |  |  |
| Cc1nc(O)c2cc(NC(C)c3ccc(C(=O)N[C@@H](CCC(=O)O)C(=O)O)cc3)ccc2n1 (stereo not given in full) | 0.8 µM | 93% | 4.3 µM |  |  |
| Cc1nc(O)c2cc(N(C)Cc3ccc(C(=O)N[C@@H](CCC(=O)O)C(=O)O)s3)ccc2n1 | 0.3 µM |  | 3.82 µM | 2.1 µM | 7 |
| Cc1nc(O)c2cc(NCc3ccc(C(=O)N[C@@H](CCC(=O)O)C(=O)O)cc3F)ccc2n1 | 0.053 µM | 94% | 6.73 µM |  |  |
| Cc1nc(O)c2cc(N(CCO)Cc3ccc(C(=O)N[C@@H](CCC(=O)O)C(=O)O)s3)ccc2n1 | 6.2 µM | 91% | 13.3 µM |  |  |
| Cc1nc(O)c2cc(CNc3ccc4c(c3)CN([C@@H](CCC(=O)O)C(=O)O)C4=O)ccc2n1 | 3 µM |  | 8.27 µM |  |  |
| Cc1nc2ccc(CNc3ccc(C(=O)N[C@@H](CCC(=O)O)C(=O)O)s3)cc2c(=O)[nH]1 | 3 µM |  | 24.8 µM |  |  |
| Cc1nc2ccc(CN(C)c3ccc(C(=O)N[C@@H](CCC(=O)O)C(=O)O)cc3)cc2c(=O)[nH]1 |  |  |  | 4.2 µM | 38 |
| Cc1nc(=O)c2cc(CN(C)c3ccc(C(=O)N[C@@H](CCC(=O)O)C(=O)O)s3)ccc2[nH]1 [RALTITREXED] | 0.007 µM |  |  | 0.96 µM | 137 |
